# Results reported in ChEMBL document CHEMBL2177037, “10'-Fluorovinblastine and 10'-Fluorovincristine: Synthesis of a Key Series of Modified Vinca Alkaloids” (ACS Med Chem Lett, 2011).
# Calls of active or inactive are those of the source. The rule behind the calls is not given here.
# Tests used:
# HCT-116/VM46 [1] = assay: Cytotoxicity against human vinblastin-resistant HCT116/VM46 cells; format: functional, cell-based
# HCT-116 [2] = assay: Cytotoxicity against human HCT116 cells; format: functional, cell-based
# L1210 [3] = assay: Cytotoxicity against mouse L1210 cells; format: functional, cell-based
# HCT-116/VM46 [4] = assay: Ratio of vincristine IC50 to compound IC50 for human vincristine-resistant HCT116/VM46 cells; format: functional
# HCT-116 [5] = assay: Ratio of vincristine IC50 to compound IC50 for human HCT116 cells; format: functional
# L1210 [6] = assay: Ratio of vincristine IC50 to compound IC50 for mouse L1210 cells; format: functional
# HCT-116 [7] = assay: Antitumor activity against human HCT116 cells xenografted in mouse assessed as mouse survival at 0.5 mg/kg; format: functional, organism-based; parameters: dose 0.5 mg/kg
Compound,IC50 (HCT-116/VM46 [1]) [nM],IC50 (HCT-116 [2]) [nM],IC50 (L1210 [3]) [nM],Ratio IC50 (HCT-116/VM46 [4]),Ratio IC50 (HCT-116 [5]),Ratio IC50 (L1210 [6]),Activity (HCT-116 [7])
CCC1=C[C@H]2CN(CCc3c([nH]c4c(Br)cccc34)[C@@](C(=O)OC)(c3cc4c(cc3OC)N(C)[C@H]3[C@@](O)(C(=O)OC)[C@H](OC(C)=O)[C@]5(CC)C=CCN6CC[C@]43[C@@H]65)C2)C1,3900,740,600,–,–,–,–
CC[C@]1(O)C[C@H]2CN(CCc3c([nH]c4ccc(SC)cc34)[C@@](C(=O)OC)(c3cc4c(cc3OC)N(C)[C@H]3[C@@](O)(C(=O)OC)[C@H](OC(C)=O)[C@]5(CC)C=CCN6CC[C@]43[C@@H]65)C2)C1,780,50,50,–,–,–,–
CCC1=C[C@H]2CN(CCc3c([nH]c4ccc(SC)cc34)[C@@](C(=O)OC)(c3cc4c(cc3OC)N(C)[C@H]3[C@@](O)(C(=O)OC)[C@H](OC(C)=O)[C@]5(CC)C=CCN6CC[C@]43[C@@H]65)C2)C1,770,85,60,–,–,–,–
CCC1=C[C@H]2CN(CCc3c([nH]c4ccc(O)cc34)[C@@](C(=O)OC)(c3cc4c(cc3OC)N(C)[C@H]3[C@@](O)(C(=O)OC)[C@H](OC(C)=O)[C@]5(CC)C=CCN6CC[C@]43[C@@H]65)C2)C1,7200,500,590,–,–,–,–
CCC1=C[C@H]2CN(CCc3c([nH]c4ccccc34)[C@@](C(=O)OC)(c3cc4c(cc3OC)N(C)[C@H]3[C@@](O)(C(=O)OC)[C@H](OC(C)=O)[C@]5(CC)C=CCN6CC[C@]43[C@@H]65)C2)C1,600,75,65,–,–,–,–
CCC1=C[C@H]2CN(CCc3c([nH]c4c(I)cccc34)[C@@](C(=O)OC)(c3cc4c(cc3OC)N(C)[C@H]3[C@@](O)(C(=O)OC)[C@H](OC(C)=O)[C@]5(CC)C=CCN6CC[C@]43[C@@H]65)C2)C1,6200,870,690,–,–,–,–
CCC1=C[C@H]2CN(CCc3c([nH]c4ccc(Br)cc34)[C@@](C(=O)OC)(c3cc4c(cc3OC)N(C)[C@H]3[C@@](O)(C(=O)OC)[C@H](OC(C)=O)[C@]5(CC)C=CCN6CC[C@]43[C@@H]65)C2)C1,860,70,65,–,–,–,–
CCC1=C[C@H]2CN(CCc3c([nH]c4ccc(Cl)cc34)[C@@](C(=O)OC)(c3cc4c(cc3OC)N(C)[C@H]3[C@@](O)(C(=O)OC)[C@H](OC(C)=O)[C@]5(CC)C=CCN6CC[C@]43[C@@H]65)C2)C1,800,70,60,–,–,–,–
CC[C@]1(O)C[C@H]2CN(CCc3c([nH]c4c(Br)cccc34)[C@@](C(=O)OC)(c3cc4c(cc3OC)N(C)[C@H]3[C@@](O)(C(=O)OC)[C@H](OC(C)=O)[C@]5(CC)C=CCN6CC[C@]43[C@@H]65)C2)C1,910,80,50,–,–,–,–
CC[C@]1(O)C[C@H]2CN(CCc3c([nH]c4ccc(Cl)cc34)[C@@](C(=O)OC)(c3cc4c(cc3OC)N(C)[C@H]3[C@@](O)(C(=O)OC)[C@H](OC(C)=O)[C@]5(CC)C=CCN6CC[C@]43[C@@H]65)C2)C1,720,7.6,6.2,–,–,–,–
CCC1=C[C@H]2CN(CCc3c([nH]c4ccc(I)cc34)[C@@](C(=O)OC)(c3cc4c(cc3OC)N(C)[C@H]3[C@@](O)(C(=O)OC)[C@H](OC(C)=O)[C@]5(CC)C=CCN6CC[C@]43[C@@H]65)C2)C1,1800,600,620,–,–,–,–
CC[C@]1(O)C[C@H]2CN(CCc3c([nH]c4ccc(F)cc34)[C@@](C(=O)OC)(c3cc4c(cc3OC)N(C=O)[C@H]3[C@@](O)(C(=O)OC)[C@H](OC(C)=O)[C@]5(CC)C=CCN6CC[C@]43[C@@H]65)C2)C1,–,1.5,0.8,5,5,5,–
CC[C@]1(O)C[C@H]2CN(CCc3c([nH]c4ccc(OC)cc34)[C@@](C(=O)OC)(c3cc4c(cc3OC)N(C)[C@H]3[C@@](O)(C(=O)OC)[C@H](OC(C)=O)[C@]5(CC)C=CCN6CC[C@]43[C@@H]65)C2)C1,> 10000,720,670,–,–,–,–
CCC1=C[C@H]2CN(CCc3c([nH]c4ccc(C)cc34)[C@@](C(=O)OC)(c3cc4c(cc3OC)N(C)[C@H]3[C@@](O)(C(=O)OC)[C@H](OC(C)=O)[C@]5(CC)C=CCN6CC[C@]43[C@@H]65)C2)C1,640,65,65,–,–,–,–
CC[C@]1(O)C[C@H]2CN(CCc3c([nH]c4c(Cl)cccc34)[C@@](C(=O)OC)(c3cc4c(cc3OC)N(C)[C@H]3[C@@](O)(C(=O)OC)[C@H](OC(C)=O)[C@]5(CC)C=CCN6CC[C@]43[C@@H]65)C2)C1,5000,220,330,–,–,–,–
CCC1=C[C@H]2CN(CCc3c([nH]c4c(Cl)cccc34)[C@@](C(=O)OC)(c3cc4c(cc3OC)N(C)[C@H]3[C@@](O)(C(=O)OC)[C@H](OC(C)=O)[C@]5(CC)C=CCN6CC[C@]43[C@@H]65)C2)C1,7300,880,640,–,–,–,–
CCC1=C[C@H]2CN(CCc3c([nH]c4ccc(F)cc34)[C@@](C(=O)OC)(c3cc4c(cc3OC)N(C)[C@H]3[C@@](O)(C(=O)OC)[C@H](OC(C)=O)[C@]5(CC)C=CCN6CC[C@]43[C@@H]65)C2)C1,290,50,30,–,–,–,–
CCC1=C[C@H]2CN(CCc3c([nH]c4ccc(OC)cc34)[C@@](C(=O)OC)(c3cc4c(cc3OC)N(C)[C@H]3[C@@](O)(C(=O)OC)[C@H](OC(C)=O)[C@]5(CC)C=CCN6CC[C@]43[C@@H]65)C2)C1,5500,640,550,–,–,–,–
CCC1=C[C@H]2CN(CCc3c([nH]c4ccc(C#N)cc34)[C@@](C(=O)OC)(c3cc4c(cc3OC)N(C)[C@H]3[C@@](O)(C(=O)OC)[C@H](OC(C)=O)[C@]5(CC)C=CCN6CC[C@]43[C@@H]65)C2)C1,920,70,65,–,–,–,–
CCC1=C[C@H]2CN(CCc3c([nH]c4c(F)cccc34)[C@@](C(=O)OC)(c3cc4c(cc3OC)N(C)[C@H]3[C@@](O)(C(=O)OC)[C@H](OC(C)=O)[C@]5(CC)C=CCN6CC[C@]43[C@@H]65)C2)C1,6700,790,650,–,–,–,–
CC[C@]1(O)C[C@H]2CN(CCc3c([nH]c4ccc(I)cc34)[C@@](C(=O)OC)(c3cc4c(cc3OC)N(C)[C@H]3[C@@](O)(C(=O)OC)[C@H](OC(C)=O)[C@]5(CC)C=CCN6CC[C@]43[C@@H]65)C2)C1,840,60,55,–,–,–,–
CC[C@]1(O)C[C@H]2CN(CCc3c([nH]c4c(I)cccc34)[C@@](C(=O)OC)(c3cc4c(cc3OC)N(C)[C@H]3[C@@](O)(C(=O)OC)[C@H](OC(C)=O)[C@]5(CC)C=CCN6CC[C@]43[C@@H]65)C2)C1,910,80,55,–,–,–,–
CC[C@]1(O)C[C@H]2CN(CCc3c([nH]c4c(F)cccc34)[C@@](C(=O)OC)(c3cc4c(cc3OC)N(C)[C@H]3[C@@](O)(C(=O)OC)[C@H](OC(C)=O)[C@]5(CC)C=CCN6CC[C@]43[C@@H]65)C2)C1,730,65,50,–,–,–,–
CC[C@]1(O)C[C@H]2CN(CCc3c([nH]c4ccc(Br)cc34)[C@@](C(=O)OC)(c3cc4c(cc3OC)N(C)[C@H]3[C@@](O)(C(=O)OC)[C@H](OC(C)=O)[C@]5(CC)C=CCN6CC[C@]43[C@@H]65)C2)C1,270,8.6,8,–,–,–,–
CC[C@]1(O)C[C@H]2CN(CCc3c([nH]c4ccc(C)cc34)[C@@](C(=O)OC)(c3cc4c(cc3OC)N(C)[C@H]3[C@@](O)(C(=O)OC)[C@H](OC(C)=O)[C@]5(CC)C=CCN6CC[C@]43[C@@H]65)C2)C1,600,7.8,7.8,–,–,–,–
CC[C@]1(O)C[C@H]2CN(CCc3c([nH]c4ccc(C#N)cc34)[C@@](C(=O)OC)(c3cc4c(cc3OC)N(C)[C@H]3[C@@](O)(C(=O)OC)[C@H](OC(C)=O)[C@]5(CC)C=CCN6CC[C@]43[C@@H]65)C2)C1,> 10000,620,630,–,–,–,–
CC[C@]1(O)C[C@H]2CN(CCc3c([nH]c4ccccc34)[C@@](C(=O)OC)(c3cc4c(cc3OC)N(C=O)[C@H]3[C@@](O)(C(=O)OC)[C@H](OC(C)=O)[C@]5(CC)C=CCN6CC[C@]43[C@@H]65)C2)C1 [VINCRISTINE],–,7,6,–,–,–,–
CC[C@]1(O)C[C@@H]2CN(CCc3c([nH]c4ccccc34)[C@@](C(=O)OC)(c3cc4c(cc3OC)N(C)[C@H]3[C@@](O)(C(=O)OC)[C@H](OC(C)=O)[C@]5(CC)C=CCN6CC[C@]43[C@@H]65)C2)C1 [VINBLASTINE],600,–,–,–,–,–,Active
